In US11198687B2, “Heteroaryl allosteric modulators of nicotinic acetylcholine receptors” (Merck Sharp & Dohme Corp., priority 2017, dated 2021):
Read-outs that look alike come from different tables or passages of the source.

Molecular target: human α7 nAChR (Homo sapiens, UniProt P36544)
Assay: Automated patch-clamp electrophysiology functional assay (Assay A)
Assay type: cell-based
Settings: IonFlux HT whole-cell population patch, HEK cell line stably expressing human RIC-3 and human α7, 40 μM acetylcholine
Summary of the method: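 Whole-cell population patch clamp at room temperature on HEK cells stably expressing human α7 and RIC-3, held at −60 mV. Compounds tested at three ascending concentrations per recording, with or without 40 μM acetylcholine; currents quantified relative to an initial 1 s 40 μM acetylcholine response; EC50 from concentration series.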

Sequence of human α7 nAChR (P36544 23-502): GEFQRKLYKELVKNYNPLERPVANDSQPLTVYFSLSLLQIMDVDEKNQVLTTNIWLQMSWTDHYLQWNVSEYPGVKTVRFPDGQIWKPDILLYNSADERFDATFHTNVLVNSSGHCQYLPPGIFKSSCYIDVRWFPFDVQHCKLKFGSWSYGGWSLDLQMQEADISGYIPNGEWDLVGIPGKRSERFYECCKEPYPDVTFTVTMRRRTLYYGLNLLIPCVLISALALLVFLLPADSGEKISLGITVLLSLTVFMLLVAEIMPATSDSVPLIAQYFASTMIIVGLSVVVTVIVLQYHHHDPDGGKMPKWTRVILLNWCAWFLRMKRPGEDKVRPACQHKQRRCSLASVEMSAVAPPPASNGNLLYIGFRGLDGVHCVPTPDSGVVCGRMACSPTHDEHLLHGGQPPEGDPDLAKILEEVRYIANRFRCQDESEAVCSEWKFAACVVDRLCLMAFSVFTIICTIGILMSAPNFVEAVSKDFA

| Compound | EC50 (read-out: α7 nAChR EC50) [nM] | EC50 (read-out: α7 nAChR Potency) [nM] |
| --- | --- | --- |
| CC1(C)[C@H](c2ccc(S(N)(=O)=O)nc2)[C@H]1c1nc(C2CCCCC2)no1 [Example 7, 5-[(1R,3R)-3-(3-Cyclohexyl-1,2,4-oxadiazol-5-yl)-2,2-dimethylcyclopropyl]pyridine-2-sulfonamide] | 640 | 500 to 5000 |
| CC1(C)[C@H](c2nc(-c3ccccc3)no2)[C@H]1c1ncc(S(N)(=O)=O)s1 [Example D9, 2-[(1R,3R)-2,2-Dimethyl-3-(3-phenyl-1,2,4-oxadiazol-5-yl)cyclopropyl]-1,3-thiazole-5-sulfonamide] | 1700 | 500 to 5000 |
| 6-[trans-3-(1,3-Benzoxazol-2-yl)-2,2-dimethylcyclopropyl]pyridine-3-sulfonamide [Example G1] | 900 | 500 to 5000 |
| CC(C)c1noc([C@H]2[C@H](c3ccc(S(N)(=O)=O)nc3)C2(C)C)n1 [Example B13, 5-{(1S,3S)-2,2-Dimethyl-3-[3-(propan-2-yl)-1,2,4-oxadiazol-5-yl]cyclopropyl}pyridine-2-sulfonamide] | – | 500 to 5000 |
| CC1(C)[C@@H](c2ccc(S(N)(=O)=O)nc2)[C@@H]1c1noc(C2CCCCC2)n1 (racemic) [Example C10, 5-[trans-3-(5-Cyclohexyl-1,2,4-oxadiazol-3-yl)-2,2-dimethylcyclopropyl]pyridine-2-sulfonamide] | 2100 | 500 to 5000 |
| CC1(C)[C@H](c2ccc(S(N)(=O)=O)nc2)[C@H]1c1nc(-c2ccc(F)cc2F)no1 [Example A8, 5-{(1R,3R)-3-[3-(2,4-Difluorophenyl)-1,2,4-oxadiazol-5-yl]-2,2-dimethylcyclopropyl}pyridine-2-sulfonamide] | – | 500 to 5000 |
| CC1(C)[C@@H](c2ccc(S(N)(=O)=O)cn2)[C@@H]1c1nc(C2CCC2)no1 (racemic) [Example G4, 6-[trans-3-(3-Cyclobutyl-1,2,4-oxadiazol-5-yl)-2,2-dimethylcyclopropyl]pyridine-3-sulfonamide] | – | 500 to 5000 |
| CC1(C)[C@@H](c2ccc(S(N)(=O)=O)cn2)[C@@H]1c1nc(-c2cncc(C(F)(F)F)c2)no1 [Example F2, 6-[(1S,3S)-2,2-Dimethyl-3-{3-[5-(trifluoromethyl)pyridin-3-yl]-1,2,4-oxadiazol-5-yl}cyclopropyl]pyridine-3-sulfonamide] | 3300 | 500 to 5000 |
| CC1(C)[C@H](c2ccc(S(N)(=O)=O)nc2)[C@H]1c1ncc(-c2ccccc2)o1 [Example A15, 5-[(1R,3R)-2,2-Dimethyl-3-(5-phenyl-1,3-oxazol-2-yl)cyclopropyl]pyridine-2-sulfonamide] | 1600 | 500 to 5000 |
| CC1(C)[C@@H](c2ccc(S(N)(=O)=O)nc2)[C@@H]1c1nc(-c2cccc(F)c2)no1 [Example B1, 5-{(1S,3S)-3-[3-(3-Fluorophenyl)-1,2,4-oxadiazol-5-yl]-2,2-dimethylcyclopropyl}pyridine-2-sulfonamide] | 310 | 100 to 500 |
| NS(=O)(=O)c1ccc(C2CC2c2nc(-c3ccccc3)no2)cn1 (single isomer, unassigned) [Example 4, 5-[trans-2-(3-Phenyl-1,2,4-oxadiazol-5-yl)cyclopropyl]pyridine-2-sulfonamide] | 400 | 100 to 500 |
| CC1(C)[C@@H](c2ccc(S(N)(=O)=O)cn2)[C@@H]1c1nc(C2CCC2)no1 [Example F13, 6-[(1S,3S)-3-(3-Cyclobutyl-1,2,4-oxadiazol-5-yl)-2,2-dimethylcyclopropyl]pyridine-3-sulfonamide] | – | 500 to 5000 |
| CC1(C)[C@@H](c2ccc(S(N)(=O)=O)nc2)[C@@H]1c1nc(-c2ccc(F)cc2F)no1 [Example B3, 5-{(1S,3S)-3-[3-(2,4-Difluorophenyl)-1,2,4-oxadiazol-5-yl]-2,2-dimethylcyclopropyl}pyridine-2-sulfonamide] | – | 500 to 5000 |
| NS(=O)(=O)c1ccc([C@@H]2C[C@H]2c2nc(-c3cccc(F)c3)no2)cn1 (racemic) [Example C8, 5-{trans-2-[3-(3-Fluorophenyl)-1,2,4-oxadiazol-5-yl]cyclopropyl}pyridine-2-sulfonamide] | 390 | 100 to 500 |
